Where “and” joins values, the source holds several entries; their conditions need not be identical. Equal entries are not always repeated.
How the values were obtained:
[1] = Compound 1 single dose non-human primate PK study; type: in vivo, Cynomolgus Macaques; settings: NHP; for Vd: read-out: Vss
Experimental: A pharmacokinetic study of Compound 1 following a single intravenous or oral dose administration to non-human primates (Cynomolgus Macaques) was conducted, the results of which are found in Table 2 and FIGS. 1-8.

[2] = Compound 1 single dose rat PK study; type: in vivo, male Sprague Dawley rats; settings: for Vd: read-out: Vss
Experimental: A pharmacokinetic study of Compound 1 following a single intravenous or oral dose administration to male Sprague Dawley rats was conducted, the results of which are found in Table 3 and FIGS. 9-14.

[3] = system: Subjects with NAFLD or NASH; assay: Treatment of NAFLD and NASH in humans; type: in vivo, human; settings: 50 or 100 mg/day for 6 months
Experimental: Subjects with NAFLD or NASH are treated with doses of either 50 or 100 mg/day of compound 1 or 2 for 6 months. Subjects are permitted their usual other medications (e.g. antidiabetic medications such as metformin or […]) but not glitazones, PPAR agonists, OCA, or similar medications. The subjects are assessed before the study, and at intervals during the study, such as every 4 weeks during the study and 4 weeks after the last dose of compound 1 or 2, for safety and pharmacodynamic evaluations.
MRIs of the subjects' livers are taken every 4 weeks during the study and 4 weeks after completion of compound 1 or 2 dosing, to determine hepatic fat; and liver biopsies are taken before the study (to establish the diagnosis) and 4 weeks after completion of compound 1 or 2 dosing. At each visit, after a 12-hour fast, blood is drawn and urine collected; and a standard metabolic panel, complete blood count, and standard urinalysis are performed. Blood is analyzed for total cholesterol, HDL-C, LDL-C, VLDL-C, TGs, apoB, and liver transaminases. The subjects also maintain health diaries, which are reviewed at each visit.

[4] = Compound 1 single dose mouse PK study; type: in vivo, male CD-1 mice
Experimental: A pharmacokinetic study of Compound 1 following a single intravenous or oral dose administration to male CD-1 mice was conducted, the results of which are found in Table 4 and FIGS. 15-20.

[5] = single iv dose 1 mg/kg, individual animals, 1 mg/kg
[6] = single po dose 5 mg/kg, individual animals, 5 mg/kg
[7] = cynomolgus monkey, plasma, iv, 1 mg/kg, single iv dose 1 mg/kg, Mean of the 3 animals
[8] = cynomolgus monkey, plasma, iv, 1 mg/kg, single iv dose 1 mg/kg, individual animals
[9] = cynomolgus monkey, plasma, po, 5 mg/kg, single po dose 5 mg/kg, Mean of the 3 animals
[10] = cynomolgus monkey, plasma, po, 5 mg/kg, single po dose 5 mg/kg, individual animals
[11] = male, Sprague Dawley, plasma, iv, 2 mg/kg, single iv dose 2 mg/kg, Mean of the 3 rats
[12] = male, Sprague Dawley, plasma, iv, 2 mg/kg, single iv dose 2 mg/kg, individual rats
[13] = male, Sprague Dawley, plasma, po, 5 mg/kg, single po dose 5 mg/kg, Mean of the 3 rats
[14] = male, Sprague Dawley, plasma, po, 5 mg/kg, single po dose 5 mg/kg, individual rats
[15] = single iv dose 2 mg/kg, individual rats, 2 mg/kg
[16] = single po dose 5 mg/kg, individual rats, 5 mg/kg
[17] = male, CD-1, plasma, single iv dose 2 mg/kg
[18] = male, CD-1, plasma, single po dose 5 mg/kg

In the case of CC(=O)N1CCc2c(C(=O)N3CCC(c4ccc(F)c(F)c4C(F)(F)F)CC3)n[nH]c2C1 [Compound 1, 1-(3-(4-(3,4-difluoro-2-(trifluoromethyl)phenyl)piperidine-1-carbonyl)-1,4,5,7-tetrahydro-6H-pyrazolo[3,4-c]pyridin-6-yl)ethan-1-one], the AUC inf [1, 5] is reported as 5217 hr.ng/m1 and 3761 hr.ng/m1, the AUCLAST [1, 5] is reported as 5165 ng·h/mL and 3731 ng·h/mL and the Cl [1, 5] is reported as 192 mL/h/kg and 266 mL/h/kg. The Cmax [1, 5] was 968 ng/mL and 704 ng/mL, the MRT last [1, 5] was 6.8 h and 6.7 h and the MRTinf [1, 5] was 7.3 h and 7.1 h. The Vss [1, 5] was 1399 mL/kg and 1886 mL/kg, the t1/2 [1, 5] was 7.8 h and 7.4 h and the F ([1]; single po dose 5 mg/kg, Mean of the 3 animals) was 18.7%. For the same compound, the AUC inf [1, 6] was 3601 hr.ng/m1 and 3918 hr.ng/m1, the AUCLAST [1, 6] was 3525 ng·h/mL and 3852 ng·h/mL and the Cmax [1, 6] was 363 ng/mL and 369 ng/mL. For the same compound, the F [1, 6] was 21.6% and 16.5%, the MRT last [1, 6] was 10.0 h and 10.3 h and the MRTinf [1, 6] was 11.1 h. For the same compound, the Tmax [1, 6] was 2 h, the t1/2 [1, 6] was 8.7 h and 8.1 h and the AUC(0-inf) [1, 7] was 4370 ng·h/mL. It also gave an AUC(0-t) [1, 7] of 4340 ng·h/mL, an MRT inf [1, 7] of 6.9 h and a clearance [1, 7] of 3.88 mL/min/kg. It also gave a half-life [1, 7] of 462 min, a Tmax ([1]; cynomolgus monkey, plasma, iv, 1 mg/kg, single iv dose 1 mg/kg, Mean of the 3 animals, first plasma collection time listed as Tmax, read-out: Tmax) of 0.27 h and a Cmax ([1]; cynomolgus monkey, plasma, iv, 1 mg/kg, single iv dose 1 mg/kg, Mean of the 3 animals, read-out: Cmax) of 881 ng/mL. For the same compound, the MRT last ([1]; cynomolgus monkey, plasma, iv, 1 mg/kg, single iv dose 1 mg/kg, Mean of the 3 animals, read-out: MRT last) was 6.4 h, the Vd [1, 7] was 1.6 L/kg and the AUC(0-inf) [1, 8] was 4140 ng·h/mL. It also gave an AUC(0-t) [1, 8] of 4110 ng·h/mL, an MRT inf [1, 8] of 6.3 h and a clearance [1, 8] of 4.02 mL/min/kg. The half-life [1, 8] was 468 min, the Cmax ([1]; cynomolgus monkey, plasma, iv, 1 mg/kg, single iv dose 1 mg/kg, individual animals, read-out: Cmax) was 970 ng/mL and the MRT last ([1]; cynomolgus monkey, plasma, iv, 1 mg/kg, single iv dose 1 mg/kg, individual animals, read-out: MRT last) was 5.9 h. It also gave a Vd [1, 8] of 1.52 L/kg, an AUC(0-inf) [1, 9] of 4080 ng·h/mL and an AUC(0-t) [1, 9] of 3990 ng·h/mL. It also gave an MRT inf [1, 9] of 11.3 h, a half-life [1, 9] of 510 min and a Cmax ([1]; cynomolgus monkey, plasma, po, 5 mg/kg, single po dose 5 mg/kg, Mean of the 3 animals, read-out: Cmax) of 406 ng/mL. The MRT last ([1]; cynomolgus monkey, plasma, po, 5 mg/kg, single po dose 5 mg/kg, Mean of the 3 animals, read-out: MRT last) was 10.2 h, the Tmax ([1]; cynomolgus monkey, plasma, po, 5 mg/kg, single po dose 5 mg/kg, Mean of the 3 animals, read-out: Tmax) was 1.67 h and the AUC(0-inf) [1, 10] was 4720 ng·h/mL. The AUC(0-t) [1, 10] was 4580 ng·h/mL, the MRT inf [1, 10] was 11.7 h and the half-life [1, 10] was 528 min. For the same compound, the Cmax ([1]; cynomolgus monkey, plasma, po, 5 mg/kg, single po dose 5 mg/kg, individual animals, read-out: Cmax) was 485 ng/mL, the MRT last ([1]; cynomolgus monkey, plasma, po, 5 mg/kg, single po dose 5 mg/kg, individual animals, read-out: MRT last) was 10.2 h and the Tmax ([1]; cynomolgus monkey, plasma, po, 5 mg/kg, single po dose 5 mg/kg, individual animals, read-out: Tmax) was 1 h. It also gave an AUC(0-inf) [2, 11] of 3970 ng·h/mL, an AUC(0-t) [2, 11] of 3950 ng·h/mL and an MRT inf [2, 11] of 3.3 h. It also gave an MRT last [2, 11] of 3 h, a clearance [2, 11] of 8.68 mL/min/kg and a Tmax ([2]; male, Sprague Dawley, plasma, iv, 2 mg/kg, single iv dose 2 mg/kg, Mean of the 3 rats, first plasma collection time listed as Tmax) of 4.8 min. It also gave a Cmax ([2]; male, Sprague Dawley, plasma, iv, 2 mg/kg, single iv dose 2 mg/kg, Mean of the 3 rats, read-out: Cmax) of 1870 ng/mL, a Vd [2, 11] of 1.68 L/kg and a half-life ([2]; male, Sprague Dawley, plasma, iv, 2 mg/kg, single iv dose 2 mg/kg, Mean of the 3 rats, read-out: t1/2 (converted)) of 510 min. It also gave an AUC(0-inf) [2, 12] of 3610 ng·h/mL, an AUC(0-t) [2, 12] of 3600 ng·h/mL and an MRT inf [2, 12] of 3 h. For the same compound, the MRT last [2, 12] was 2.8 h, the clearance [2, 12] was 9.23 mL/min/kg and the Tmax ([2]; male, Sprague Dawley, plasma, iv, 2 mg/kg, single iv dose 2 mg/kg, individual rats, first plasma collection time listed as Tmax) was 4.8 min. The Cmax ([2]; male, Sprague Dawley, plasma, iv, 2 mg/kg, single iv dose 2 mg/kg, individual rats, read-out: Cmax) was 1670 ng/mL, the Vd [2, 12] was 1.69 L/kg and the half-life ([2]; male, Sprague Dawley, plasma, iv, 2 mg/kg, single iv dose 2 mg/kg, individual rats, read-out: t1/2 (converted)) was 516 min. It also gave an AUC(0-inf) [2, 13] of 2680 ng·h/mL, an AUC(0-t) [2, 13] of 2640 ng·h/mL and an MRT inf [2, 13] of 9.9 h. It also gave an MRT last [2, 13] of 9 h, a Tmax [2, 13] of 85.2 min and a Cmax ([2]; male, Sprague Dawley, plasma, po, 5 mg/kg, single po dose 5 mg/kg, Mean of the 3 rats, read-out: Cmax) of 390 ng/mL. For the same compound, the AUC(0-inf) [2, 14] was 3210 ng·h/mL, the AUC(0-t) [2, 14] was 3170 ng·h/mL and the MRT inf [2, 14] was 8.7 h. It also gave an MRT last [2, 14] of 8 h, a Cmax ([2]; male, Sprague Dawley, plasma, po, 5 mg/kg, single po dose 5 mg/kg, individual rats, read-out: Cmax) of 456 ng/mL and a half-life ([2]; male, Sprague Dawley, plasma, po, 5 mg/kg, single po dose 5 mg/kg, individual rats, read-out: t1/2 (converted)) of 492 min. For the same compound, the half-life ([2]; male, Sprague Dawley, plasma, po, 5 mg/kg, t1/2, rat, single po dose 5 mg/kg, Mean of the 3 rats, heading: t1/2) was 456 min, the AUCLAST [2, 15] was 5020 ng·h/mL and 3244 ng·h/mL and the AUCinf [2, 15] was 5055 ng·h/mL and 3256 ng·h/mL. The Cl [2, 15] was 396 mL/h/kg and 614 mL/h/kg, the Cmax [2, 15] was 2400 ng/mL and 1536 ng/mL and the MRTinf [2, 15] was 3.7 h and 3.1 h. For the same compound, the MRTlast [2, 15] was 3.2 h and 2.9 h, the t1/2 [2, 15] was 11.0 h and 6.0 h and the F ([2]; single po dose 5 mg/kg, Mean of the 3 rats) was 27.0%. For the same compound, the AUCLAST [2, 16] was 2683 ng·h/mL and 2069 ng·h/mL, the AUCinf [2, 16] was 2698 ng·h/mL and 2138 ng·h/mL and the Cmax [2, 16] was 274 ng/mL and 440 ng/mL. The F [2, 16] was 32.3% and 27.2% and 21.5%, the MRTinf [2, 16] was 8.2 h and 12.8 h and the MRTlast [2, 16] was 11.2 h. The t1/2 [2, 16] was 6.2 h and 8.5 h, the “improvement in their disease, as manifested by MRI and liver biopsy” value [3] was “dose-related improvement” and the AUC(0-inf) [4, 17] was 2460 ng·h/mL. It also gave an AUC(0-t) [4, 17] of 2400 ng·h/mL, an MRT inf [4, 17] of 2.5 h and an MRT last [4, 17] of 2.2 h. It also gave a clearance [4, 17] of 13.5 mL/min/kg, a half-life [4, 17] of 126 min and a Cmax ([4]; male, CD-1, plasma, single iv dose 2 mg/kg, maximum observed concentration at first time point) of 1460 ng/mL. The Vd ([4]; male, CD-1, plasma, single iv dose 2 mg/kg, read-out: Vss) was 2.02 L/kg, the AUC(0-inf) [4, 18] was 1810 ng·h/mL and the AUC(0-t) [4, 18] was 1800 ng·h/mL. The Cmax [4, 18] was 278 ng/mL, the MRT inf [4, 18] was 5 h and the MRT last [4, 18] was 4.9 h. It also gave a Tmax [4, 18] of 15 min, a half-life [4, 18] of 174 min and a Tmax ([4]; male, CD-1, single iv dose 2 mg/kg, first plasma collection time) of 4.8 min. It also gave an F ([4]; single po dose 5 mg/kg) of 29.4%.

From US20220354844A1, “METHODS OF TREATING METABOLIC DISEASES WITH FUSED BICYCLIC PYRAZOLES” (Belite Bio, Inc, priority 2017, published 2022)
